Experimental data taken from ChEMBL document CHEMBL5385914 (J Med Chem, 2024).
The source made the active and inactive calls. The calls are words filed in the database; no cut-off is given here.

Assays:
A2780 [1] = assay: Antiproliferative activity against human A2780 cells assessed as inhibition of cell growth; type: functional, cell-based
[2] = Antiproliferative activity against human A2780AD cells overexpressing P-gp assessed as inhibition of cell growth; type: functional, cell-based
Tubulin [3] = assay: Displacement of fluorescent probe (R)-(+)-ethyl 5-amino2-methyl-1,2-dihydro-3-phenylpyrido[3,4-b]pyrazin-7-ylcarbamate from tubulin colchicine binding site (unknown origin) assessed as dissociation constant; type: protein-complex assay, Homo sapiens
A549 [4] = assay: cells; conditions: Homo sapiens
Description: Antiproliferative activity against human A549 cells assessed as inhibition of cell growth

HeLa [5] = assay: cells; conditions: Homo sapiens
Description: Antiproliferative activity against human HeLa cells expressing tubulin betaIII assessed as inhibition of cell growth

HeLa [6] = assay: cells; conditions: Homo sapiens; remark: listed apart in the source
Description: Antiproliferative activity against human HeLa cells assessed as inhibition of cell growth

[7] = Inhibition of human recombinant alpha1beta3 tubulin expressed in Sf9 insect cells at 5 to 27.5 uM incubated for 70 mins by […]; conditions: dose 5-27.5 µM
Tubulin (Homo sapiens) [8] = molecular target: T1, Tubulin (Homo sapiens) (UniProt P68371+Q9H4B7+P0DPH7+P68366+Q13509+Q71U36+P04350+Q3ZCM7+P07437+P68363+Q9BQE3+Q6PEY2+Q13885+Q9BVA1+Q9BUF5); assay: Disruption of microtubule network in human A549 cells assessed as appearance of aberrant chromosome distribution incubated for 24 hrs by immunofluorescence staining based epifluorescence microscopic analysis; type: cell-based
[9] = Toxicity in athymic nu/nu mouse xenografted with human NCI-H460 cells assessed as reduction in body weight at 2.5 mg/kg, iv measured on day 5; type: organism-based; parameters: scale not given: the % may be the effect or the level left; conditions: in vivo, 120 h, time 5 day
NCI-H460 [10] = assay: Antitumor activity against human NCI-H460 cells xenografted in athymic nu/nu mouse assessed as increase in survival time at 0.75 mg/kg, iv administered once a week for 2 weeks; type: functional, organism-based
cells = conditions: Homo sapiens, A2780AD, 48 h
HeLa [11] = assay: cells; conditions: Homo sapiens, 48 h
[12] = Toxicity in athymic nu/nu mouse xenografted with human NCI-H460 cells assessed as reduction in body weight at 2.5 mg/kg, iv measured on day 2; type: organism-based; parameters: scale not given: the % may be the effect or the level left; conditions: in vivo, 48 h, time 2 day
NCI-H460 [13] = assay: Antitumor activity against human NCI-H460 cells xenografted in athymic nu/nu mouse assessed as median tumor volume at 0.75 mg/kg, iv measured on day 7 by digital caliper based analysis; type: functional; conditions: time 7 day
NCI-H460 [14] = assay: Antitumor activity against human NCI-H460 cells xenografted in athymic nu/nu mouse assessed as median tumor volume at 1.7 mg/kg, iv measured on day 7 by digital caliper based analysis; type: functional; conditions: time 7 day
A2780 [15] = assay: cells; conditions: Homo sapiens, A2780, 48 h
Tubulin (Bos taurus) [16] = molecular target: T2, Tubulin (Bos taurus) (UniProt Q6B856+Q862L2+Q862F3); assay: Displacement of 2-methoxy-5-(2,3,4-trimethoxyphenyl)-2,4,6-cycloheptatriene-1-one from calf brain tubulin colchicine site
NCI-H460 [17] = assay: Antitumor activity against human NCI-H460 cells xenografted in athymic nu/nu mouse assessed as mean survival time at 1.1 mg/kg, iv administered once a week for 2 weeks; type: functional
NCI-H460 [18] = assay: Antitumor activity against human NCI-H460 cells xenografted in athymic nu/nu mouse assessed as median tumor volume at 1.1 mg/kg, iv measured on day 7 by digital caliper based analysis; type: functional; conditions: time 7 day
[19] = Toxicity in athymic nu/nu mouse xenografted with human NCI-H460 cells assessed as reduction in body weight at 2.5 mg/kg, iv measured on day 7; type: organism-based; parameters: scale not given: the % may be the effect or the level left; conditions: in vivo, 168 h, time 7 day
NCI-H460 [20] = assay: Antitumor activity against human NCI-H460 cells xenografted in athymic nu/nu mouse assessed as mean survival time at 1.7 mg/kg, iv administered once a week for 2 weeks; type: functional
[21] = Toxicity in athymic nu/nu mouse xenografted with human NCI-H460 cells assessed as clinical signs of systemic toxicity at 2.5 mg/kg, iv administered once a week for 2 weeks; type: organism-based; conditions: in vivo, 336 h
Tubulin (Bos taurus) [22] = molecular target: T2, Tubulin (Bos taurus); assay: Inhibition of calf brain tubulin assembly measured upto 100 mins; conditions: dose 0.625-5 µM
NCI-H460 [23] = assay: Antitumor activity against human NCI-H460 cells xenografted in athymic nu/nu mouse assessed as increase in survival time at 1.1 to 2.5 mg/kg, iv administered once a week for 2 weeks; type: functional, organism-based; conditions: dose 1.1-2.5 mg/kg
Tubulin (Homo sapiens) [24] = molecular target: T1, Tubulin (Homo sapiens); assay: Disruption of microtubule network in human A549 cells assessed as reduction in mitotic spindle formation incubated for 24 hrs by immunofluorescence staining based epifluorescence microscopic analysis; type: cell-based
NCI-H460 [25] = assay: Antitumor activity against human NCI-H460 cells xenografted in athymic nu/nu mouse assessed as mean survival time at 0.75 mg/kg, iv administered once a week for 2 weeks; type: functional
NCI-H460 [26] = assay: Antitumor activity against human NCI-H460 cells xenografted in athymic nu/nu mouse assessed as increase in apoptosis by measuring number of apoptotic nuclei in tumor at 2.5 mg/kg, iv administered once a week for 2 weeks and measured 24 hrs post last dose by Hoechst 33258 staining based fluorescence microscopic analysis (reference value: 1 +/- 0.1); type: functional; conditions: time 15 day
Tubulin (Homo sapiens) [27] = molecular target: T1, Tubulin (Homo sapiens); assay: Disruption of microtubule network in human A549 cells assessed as induction of cellular landscape at 1 nM incubated for 24 hrs by immunofluorescence staining based epifluorescence microscopic analysis; type: cell-based
Tubulin (Homo sapiens) [28] = molecular target: T1, Tubulin (Homo sapiens); assay: Disruption of microtubule network in human A549 cells assessed as appearance of cellular phenotype with hypercondensed chromatin incubated for 24 hrs by immunofluorescence staining based epifluorescence microscopic analysis; type: cell-based
NCI-H460 [29] = assay: Antitumor activity against human NCI-H460 cells xenografted in athymic nu/nu mouse assessed as mean survival time at 2.5 mg/kg, iv administered once a week for 2 weeks; type: functional
Tubulin [30] = molecular target: Tubulin (Bos taurus, UniProt Q6B856+Q862L2+Q862F3); assay: Displacement of fluorescent probe (R)-(+)-ethyl 5-amino2-methyl-1,2-dihydro-3-phenylpyrido[3,4-b]pyrazin-7-ylcarbamate from calf brain tubulin colchicine binding site assessed as dissociation constant at 0.05 to 70 uM incubated for 30 mins by fluorescence based assay
NCI-H460 [31] = assay: Antitumor activity against human NCI-H460 cells xenografted in athymic nu/nu mouse assessed as reduction in tumor size at 1.1 to 2.5 mg/kg, iv administered once a week for 2 weeks by digital caliper based analysis; type: functional, organism-based; conditions: dose 1.1-2.5 mg/kg
HeLa [32] = assay: cells; conditions: Homo sapiens, 48 h; remark: listed apart in the source
NCI-H460 [33] = assay: Antitumor activity against human NCI-H460 cells xenografted in athymic nu/nu mouse assessed as median tumor volume at 2.5 mg/kg, iv measured on day 7 by digital caliper based analysis; type: functional; conditions: time 7 day
Tubulin (Homo sapiens) [34] = molecular target: T1, Tubulin (Homo sapiens); assay: Disruption of microtubule network in human A549 cells assessed as disorganization of tubulin cytoskeleton during interphase incubated for 24 hrs by immunofluorescence staining based epifluorescence microscopic analysis; type: cell-based
NCI-H460 [35] = assay: Antitumor activity against human NCI-H460 cells xenografted in iv dosed athymic nu/nu mouse assessed as reduction in tumor volume administered once a week for 2 weeks and measured 2 to 3 times per week by digital caliper based analysis; type: functional, organism-based; conditions: dose 0.25-2.5 mg/kg
Tubulin (Homo sapiens) [36] = molecular target: T1, Tubulin (Homo sapiens); assay: Disruption of microtubule network in human A549 cells assessed as reduction in number and length of microtubules incubated for 24 hrs by immunofluorescence staining based epifluorescence microscopic analysis; type: cell-based
A549 [37] = assay: cells; conditions: Homo sapiens, A549, 48 h
NCI-H460 [38] = assay: Antitumor activity against human NCI-H460 cells xenografted in athymic nu/nu mouse assessed as reduction in tumor size at 0.75 mg/kg, iv administered once a week for 2 weeks by digital caliper based analysis; type: functional, organism-based
Tubulin (Bos taurus) [39] = molecular target: T2, Tubulin (Bos taurus); assay: Binding affinity to calf brain tubulin colchicine binding site assessed as Koff at 3 uM incubated for 30 mins by fluorescence based photon-counting instrument
Tubulin (Homo sapiens) [40] = molecular target: T1, Tubulin (Homo sapiens)

## COCc1cc2cccc(NC(C)=C3C(=O)CC(c4ccccc4)CC3=O)c2o1 (stereo not given)
A2780 [1]
  IC50: 23 nM
[2]
  IC50: 39 nM
Tubulin [3]
  Kd: 3 nM

## COc1cc2c(c(OC)c1OC)-c1ccc(OC)c(=O)cc1[C@@H](NC(C)=O)CC2 [COLCHICINE]
A549 [4]
  IC50: 49 nM
HeLa [5]
  IC50: 19 nM
HeLa [6]
  IC50: 11 nM
[2]
  IC50: 537 nM

## CCC[C@@H](NC(=O)[C@]1(C)CSC(/C(C)=N/O)=N1)c1cc(OCC2CC2)cc(=O)o1
[7]
  inhibition: Active
Tubulin (Homo sapiens) [8]
  Activity: Active
[9]
  Activity: -4.5%
NCI-H460 [10]
  Activity: inactive
cells
  IC50: 3.2 nM
HeLa [11]
  IC50: 1.3 nM
[12]
  Activity: 11.2%
NCI-H460 [13]
  Activity: 1395 mm3
NCI-H460 [14]
  Activity: 580 mm3
A2780 [15]
  IC50: 1.4 nM
Tubulin (Bos taurus) [16]
  Activity: 100%
NCI-H460 [17]
  MST: 16 days
NCI-H460 [18]
  Activity: 947.3 mm3
[19]
  Activity: -2.9%
NCI-H460 [20]
  MST: 20 days
[21]
  Activity: Non-Toxic
Tubulin (Bos taurus) [22]
  inhibition: Dose-Dependent Effect
NCI-H460 [23]
  Activity: Active
Tubulin (Homo sapiens) [24]
  Activity: Active
NCI-H460 [25]
  MST: 10.5 days
NCI-H460 [26]
  Activity: 10
Tubulin (Homo sapiens) [27]
  Activity: Active
Tubulin (Homo sapiens) [28]
  Activity: Active
NCI-H460 [29]
  MST: 21 days
Tubulin [30]
  Kd: 20 nM
NCI-H460 [31]
  Activity: Active
HeLa [32]
  IC50: 1.6 nM
NCI-H460 [33]
  Activity: 260.4 mm3
Tubulin (Homo sapiens) [34]
  Activity: Active
NCI-H460 [35]
  Activity: Dose-Dependent Effect
Tubulin (Homo sapiens) [36]
  Activity: Active
A549 [37]
  IC50: 1.5 nM
NCI-H460 [38]
  Activity: inactive

## COc1ccc(-c2ccc(OC)c(=O)cc2)c(OC)c1OC
Tubulin (Bos taurus) [39]
  K: 6 s⁻¹

## COc1cc([C@@H]2c3cc4c(cc3[C@H](O)[C@H]3COC(=O)[C@H]23)OCO4)cc(OC)c1OC [PODOFILOX]
cells
  IC50: 20 nM
HeLa [11]
  IC50: 18 nM
HeLa [32]
  IC50: 15.5 nM
A549 [37]
  IC50: 16 nM

## CC(=O)O[C@H]1C(=O)[C@@]2(C)[C@H]([C@H](OC(=O)c3ccccc3)[C@]3(O)C[C@H](OC(=O)[C@H](O)[C@@H](NC(=O)c4ccccc4)c4ccccc4)C(C)=C1C3(C)C)[C@]1(OC(C)=O)CO[C@@H]1C[C@@H]2O [PACLITAXEL]
cells
  IC50: 392 nM
HeLa [11]
  IC50: 20 nM
HeLa [32]
  IC50: 1.1 nM

## COc1ccc(/C=C\c2cc(OC)c(OC)c(OC)c2)cc1O
Tubulin (Homo sapiens) [40]
  Ka: 3 10^8/M

## CCC[C@@H](NC(=O)[C@]1(C)CSC(/C(C)=N/O)=N1)c1cc(OC)cc(=O)o1
cells
  IC50: 54 nM
HeLa [11]
  IC50: 28 nM
A2780 [15]
  IC50: 22 nM
Tubulin [30]
  Kd: 960 nM
HeLa [32]
  IC50: 19 nM
A549 [37]
  IC50: 23 nM

## CC[C@]1(O)C[C@@H]2CN(CCc3c([nH]c4ccccc34)[C@@](C(=O)OC)(c3cc4c(cc3OC)N(C)[C@H]3[C@@](O)(C(=O)OC)[C@H](OC(C)=O)[C@]5(CC)C=CCN6CC[C@]43[C@@H]65)C2)C1 [VINBLASTINE]
cells
  IC50: 70 nM
HeLa [11]
  IC50: 4.4 nM
A2780 [15]
  IC50: 1.5 nM
HeLa [32]
  IC50: 0.54 nM
A549 [37]
  IC50: 1.5 nM

## COc1cc2cc(c1Cl)N(C)C(=O)C[C@H](OC(=O)[C@H](C)N(C)C(C)=O)[C@]1(C)O[C@H]1[C@H](C)[C@@H]1C[C@@](O)(NC(=O)O1)[C@H](OC)/C=C/C=C(\C)C2 [MAYTANSINE]
cells
  IC50: 19 nM
HeLa [11]
  IC50: 1.1 nM
A2780 [15]
  IC50: 0.74 nM
HeLa [32]
  IC50: 0.33 nM
A549 [37]
  IC50: 0.59 nM
